According to US5428048A, “Aryl-N-hydroxyureas as inhibitors of 5-lipoxygenase and anto-arteriosclerotic agents” (American Home Products Corporation, priority 1993, dated 1995):
pIC50: −log10 of the molar value.

Legend:
5-Lipoxygenase = target: T1, 5-Lipoxygenase (Homo sapiens, UniProt P09917); assay: Inhibition of 5-Lipoxygenase in Human Whole Blood (ionophore A23187-stimulated LTB4); format: cell-based; conditions: 10 μM
T1 construct: endogenous in cells; host or cells: whole blood of male human donors (results per 10^6 neutrophils)
T1 sequence (P09917 1-674): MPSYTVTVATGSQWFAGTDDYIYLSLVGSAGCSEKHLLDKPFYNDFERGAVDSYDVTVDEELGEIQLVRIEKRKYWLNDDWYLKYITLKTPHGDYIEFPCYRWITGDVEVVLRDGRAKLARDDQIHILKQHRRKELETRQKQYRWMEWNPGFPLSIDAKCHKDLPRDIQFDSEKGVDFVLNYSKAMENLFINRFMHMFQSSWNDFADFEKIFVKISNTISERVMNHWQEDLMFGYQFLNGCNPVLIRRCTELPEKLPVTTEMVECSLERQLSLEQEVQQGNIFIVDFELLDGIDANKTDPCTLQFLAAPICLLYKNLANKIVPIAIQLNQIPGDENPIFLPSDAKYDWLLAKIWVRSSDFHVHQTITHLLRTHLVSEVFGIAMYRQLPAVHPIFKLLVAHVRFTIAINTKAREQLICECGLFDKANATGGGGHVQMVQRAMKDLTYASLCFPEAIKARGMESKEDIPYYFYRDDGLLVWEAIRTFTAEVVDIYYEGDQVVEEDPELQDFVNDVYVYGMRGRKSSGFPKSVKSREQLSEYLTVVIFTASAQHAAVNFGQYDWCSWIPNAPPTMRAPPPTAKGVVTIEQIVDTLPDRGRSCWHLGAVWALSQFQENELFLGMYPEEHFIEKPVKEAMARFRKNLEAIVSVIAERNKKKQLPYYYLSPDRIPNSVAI
Method: 1. Inhibition of 5-Lipoxygenase in Human Whole Blood
Blood is obtained in 50-100 ml quantities from male donors. White blood cell counts and differentials are made. Two ml of blood are placed in a 15 ml polypropylene test tube. Test compounds are solubilized in dimethylsulfoxide and diluted in 1:10 in 10% bovine serum albumin in phosphate buffered saline, pH 7.4 resulting in a final dimethylsulfoxide concentration of 0.1% in the blood. Then, solutions of test compounds are added to the blood in a shaking water bath at 37° C. for 10 minutes prior to the addition of 30 μM calcium ionophore (A23187, Sigma). After ionophore administration, whole blood samples are mixed and incubated for 20 minutes at 37° C. in a shaking water bath. Incubation is terminated by placing samples in an ice bath and immediately adding ethylene glycol-bis-(β-aminoethyl ether)-N, N,N',N'-tetraacetic acid (10 mM). Samples are mixed and centrifuged at 1200×g for 15 minutes at […]. Preparation of samples for evaluation by RIA or ELISA is carded out by the following protocol. Plasma is removed from sample tubes, placed in 15 ml polypropylene test tubes containing 8 ml methanol, and then vortexed to precipitate protein. Samples are stored at -70° C. overnight. The next day, samples are centrifuged at 200×g for 15 minutes at 4° C. to pellet the precipitate. Samples are dried in a Savant SpeedVac Concentrator, Model SVC 200H, reconstituted to original volume with ice cold RIA or ELISA buffer, and stored at -70° C. until assayed. The assay for eicosanoids (LTB4, TxB2, and PGE2) is performed as described by the manufacturer of the [^3 H]-RIA kit or ELISA kit (LTB4 -Amersham, TxB2 and PGE2 - Caymen Chemical).
The total eicosanoid level in 2 ml of blood is calculated and reported as ng/10^6 neutrophils. Significance is determined by a one-way analysis of variance with least significant difference (LSD) comparisons to control (p≤0.05) and IC50 's (μM) are determined by regression analysis (Finney, 1978). Drug effects are expressed as percent change from control values.

Lipoxygenase = assay: Ex-Vivo Measurement of Lipoxygenase Inhibition in Orally Dosed Rats (LTB4 in A23187-stimulated blood); parameters: species or system Male Sprague Dawley rats; conditions: ex vivo rat, p.o., dose 10 (mg/kg), pretreatment 3 hr
Method: 2. […] After an interval of 3 or 6 hours, the rats were anesthetized with metofane (n =4/group) and blood collected in heparinized tubes. White blood cell counts and differentials were made. One ml of blood from each animal was placed in a 5 ml plastic tube in a shaker bath at 37° C. A23187 at a final concentration of 10 μM was added to the blood and the blood vortexed and incubated for 15 min at 37° C. with gentle shaking. Incubation was terminated by vortexing sample and centrifuging immediately at 1200 xG for 15 min at 4° C. The plasma was transferred to 15 ml plastic tubes each containing 8 ml of methanol to precipitate protein followed by vortexing. The samples were stored at -70° C. overnight and the next day the samples were centrifuged at 800 xG for 15 min to pellet the precipitate. The samples were dried in a Savant SpeedVac Concentrator Model SVC 200H and reconstituted to the original volume with cold RIA or ELISA buffer. The reconstituted samples were stored at -70° C. until assayed. The assay for LTB4 was perforated according to the directions of the [^3 H]RIA kit or ELISA kit (Seragen). The total metabolite level in 1 ml of blood is calculated and reported as ng/10^6 neutrophils. Significance is determined by a one-way analysis of variance with LSD comparisons to control (p<0.05).

Low Density Lipoprotein = assay: Inhibition of Copper Ion Mediated Oxidation of Low Density Lipoprotein; format: biochemical; conditions: Cu+2 mediated oxidation of rabbit or monkey LDL, 37° C., 90 minutes, 532 nm
Method: 5. Inhibition of Copper Ion Mediated Oxidation of Low Density Lipoprotein
In this in vitro assay, the inhibition of Cu^+2 mediated oxidation of rabbit or monkey LDL by an invention compound is determined spectrophotometricallly. Oxidation of LDL results in the formation of LDL-diene which absorbs light at 532 nm. Inhibition of oxidation of LDL leads to a decrease in absorbance at 532 nm.
Rabbit or monkey LDL is prepared according to the procedures of Havel, Eder and Gragdon, "The Distribution and Chemical Composition of Ultracentrifugally Separated Lipoproteins in Human Serum,: J. Clin. Invest. 34, 1345-1353 (1955) and Parhtasarathy, Wieland and Steriberg, "A Role for Endothelial Cell Lipoxygenase in the Oxidative Modification of Low Density Lipoprotein," Proc. Natl. Acad. Sci. USA 86, 1046-1050 (1989). Test compound solutions are prepared by dissolving the invention compounds in ethanol at concentrations up to 248 μM. The medium used is Dulbecco's phosphate buffered saline containing 0.5 mg/ml bovine serum albumin. For standards, 0 to 10 μl of an aqueous solution of 1,1,3,3-tetraethoxypropane (1 μmol/ml H2 O) in 4.1 ml of medium is used.
Test compound solution ([…]) is added to 4 ml of medium in incubation tubes. To each tube is added 10 μl of LDL solution and 25 μl of aqueous copper sulfate solution (1.32 mg/ml H2 O). The tubes are incubated at 37° C. for 90 minutes and the oxidation reaction quenched by addition of 1 ml of thiobarbituric acid solution (0.67% in 50% acetic acid). The tubes are heated at 90° C. for 1 hour, then chilled in an ice bath and the chromophore extracted into 2 ml of n-butanol. Absorbence is read at 532 nm and the results are reported as nmols of malondialdehyde equivalents.
Significant differences (p<0.05) are determined by the Dunnett T-test or by the Student-Newman-Keuls Test for significant differences between means. The assay is conducted using several concentrations [I] of the inhibitor test compounds. The LDL solution concentrations at different experiments were either 1.5 mg/ml, 2.5 mg/ml or 10.3 mg/ml. The IC50 is determined by non-linear regression, plotting log [I] vs. % inhibition. (Reference: K. Yagi, Biochemical Medicine 15,212-216 (1976)).

LDL [1] = conditions: in words; cited from earlier work
LDL [2] = conditions: in words; cited from earlier work; remark: listed apart in the source
atherosclerotic lesions = conditions: WHHL rabbits, in words; cited from earlier work

## Cc1oc(-c2cc(C(C)(C)C)c(O)c(C(C)(C)C)c2)nc1CCOc1ccc(CN(O)C(N)=O)cc1 [Example 10]
5-Lipoxygenase
  inhibition at 10 µM: 83%
Lipoxygenase
  % Inhibition of LTB4: 44%
Low Density Lipoprotein
  pIC50: 6.74

## CC(C)(Sc1cc(C(C)(C)C)c(O)c(C(C)(C)C)c1)Sc1cc(C(C)(C)C)c(O)c(C(C)(C)C)c1 [Probucol]
LDL [1]
  inhibition of Cu+2 mediated oxidative modification of LDL: inhibits both cell mediated and Cu^+2 mediated oxidative modification of LDL
LDL [2]
  inhibition of cell mediated oxidative modification of LDL: inhibits both cell mediated and Cu^+2 mediated oxidative modification of LDL
Atherosclerotic lesions
  inhibition of formation of atherosclerotic lesions: shown to inhibit the formation of atherosclerotic lesions in WHHL rabbits
